Results on 2 compounds are retold here after patent publication US20250163076A1, “SYNTHESIS OF BRUTON'S TYROSINE KINASE INHIBITORS” (JANSSEN PHARMACEUTICA NV, priority 2022, published 2025).

Molecules are shown by their SMILES. Values after ≈ are worked out from the molar mass of the structure shown. Read-outs that look alike come from different tables or passages of the source.

Data set [1] deals with anti-IgM induced B cell activation in human whole blood. In words: Human whole blood assay, anti-IgM induced B cell activation. It counts as cell-based. As to conditions: anti-IgM stimulation. The protocol: (§1) The activity of Compound M was assessed in rat and human whole blood assays using anti-IgD and anti-IgM stimulation, respectively, to trigger B-cell activation via B-cell receptor.

For data set [2] the following is noted: human, plasma.
Data set [3] can be described thus: Aqueous solubility at pH 2 and pH 7. It counts as physicochemical. The following applies: for Solubility: aqueous medium, Table 5.
A short description of data set [4]: Liver microsomes T1/2 (Table 3). The following applies: species not given. It counts as in vitro ADME. (Liver microsomes are a subcellular fraction often used to study metabolism.)
Data set [5] relates to B-cell activation via B-cell receptor in rat whole blood. In words: Rat whole blood assay, anti-IgD stimulated B-cell activation. In kind it is cell-based. The following applies: for IC50: Rattus norvegicus, B-cell, anti-IgD stimulation. The protocol: as §1
Data set [6] is described as follows: Rat oral bioavailability (% F). It counts as in vivo. The following applies: for bioavailability: in vivo, oral.
Another data set deals with BTK (Homo sapiens, UniProt Q06187). In words: BTK covalent inhibition kinetics (KI, kinact, kinact/KI). In kind it is biochemical. The protocol:
The development of the structure-activity relationship was conducted by characterizing the non-covalent affinity of each inhibitor for BTK (KI) and the first order rate constant for irreversible covalent bond formation (kinact). The second order rate constant kinact/KI ratio is used to assess the covalent inhibitor potency because it is independent of incubation time and substrate concentrations (Copeland, R. A. Evaluation of Enzyme Inhibitors in Drug Discovery: a Guide for Medicinal Chemists and Pharmacologists; 2nd ed.; Wiley: Hoboken, N.J., 2013).

A short description of a further data set: PPB % free, cyno. The following applies: cynomolgus monkey, plasma. In kind it is in vitro ADME.
The next data set in a line: PPB % free, human. As to conditions: plasma.
A short description of a further data set: PPB % free, rat. It counts as in vitro ADME. As to conditions: plasma.
Data set [7] in a line: Human liver microsomes T1/2. It counts as in vitro ADME. As to conditions: human, liver microsomes; Table 5.
The next data set in a line: PPB % free, dog. In kind it is in vitro ADME. The following applies: plasma.
The subject of the next data set is Mouse CD69 cell. In words: Mouse CD69 splenocyte assay. In kind it is cell-based.
[8] abbreviates: Table 5, average of 2 independent determinations (± SD).

Chain of BTK (Q06187 whole entry): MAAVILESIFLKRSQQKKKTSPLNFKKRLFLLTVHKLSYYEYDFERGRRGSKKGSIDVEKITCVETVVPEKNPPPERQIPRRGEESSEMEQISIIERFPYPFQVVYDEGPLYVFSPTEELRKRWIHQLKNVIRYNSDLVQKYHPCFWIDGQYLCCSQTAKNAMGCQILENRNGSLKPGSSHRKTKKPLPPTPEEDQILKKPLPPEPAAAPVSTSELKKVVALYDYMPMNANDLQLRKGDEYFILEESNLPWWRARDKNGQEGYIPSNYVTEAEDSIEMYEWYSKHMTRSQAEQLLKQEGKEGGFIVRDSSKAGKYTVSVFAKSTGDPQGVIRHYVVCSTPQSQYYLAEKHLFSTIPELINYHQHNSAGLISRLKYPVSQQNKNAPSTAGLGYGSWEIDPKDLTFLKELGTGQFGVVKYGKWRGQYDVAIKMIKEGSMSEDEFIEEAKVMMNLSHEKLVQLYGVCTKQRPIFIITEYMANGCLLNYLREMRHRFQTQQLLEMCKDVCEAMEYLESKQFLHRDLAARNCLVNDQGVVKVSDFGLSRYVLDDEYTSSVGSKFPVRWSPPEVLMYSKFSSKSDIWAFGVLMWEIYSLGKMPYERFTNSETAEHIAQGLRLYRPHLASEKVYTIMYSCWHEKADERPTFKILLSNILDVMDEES

In general, IC50 refers to the concentration at which inhibition is half-maximal. A low value points to greater potency. As a reminder, the half-life is the time in which the quantity being followed falls by half. The low end stands for rapid decline, the high end for slow decline. On to `C=CC(=O)N1CC[C@@H](NC(=O)c2sc3nccc4c3c2NC(=O)N4c2ccc(Oc3ccccc3)cc2C)C1` [Compound A], for which the IC50 in data set [1] was found to be 84 ± 39 nM; in data set [5], 130 ± 11 nM. Besides, the PPB % free in data set [2] amounted to 0.16%. Moreover, the “pH 2 solubility” value was <4/<4 μM in [3] (Table 3, pH 2) and <4/<4 μM in [3] (Table 6, pH 2). The “pH 7 solubility” value is given as <4/<4 μM in data set [3] (Table 3, pH 7) and <4/<4 μM in data set [3] (Table 6, pH 7). Also, in data set [4] (first of the two values printed 23/40), the “Liver microsomes T1/2” value stood at 23 min. This compound also gave a half-life in data set [4] (liver microsomes, second of the two values printed 23/40) of 40 min. The “Rat % F (1 g/kg, crystalline suspension)” value in data set [6] (1 g/kg, crystalline suspension) is less than 1%. Moreover, the bioavailability in [6] (1 g/kg, crystalline suspension, read-out: Rat % F (1 g/kg, crystalline suspension)) was less than 1%; in data set [6] (20% HP-β-CD solution, read-out: Rat % F (20% HP-β-CD solution)) it was 29.7%. This compound showed a Ki at BTK (Table 3, average of two independent determinations (±SD)) of 28.8 ± 21 nM.

As usually defined, the Solubility is the concentration that dissolves in the medium under given conditions. For orientation: fraction unbound means the share of the substance not bound to proteins or other matrix. One may read the kinact as the rate constant of inactivation at saturating inhibitor. Regarding `C=CC(=O)N[C@H]1CCC[C@H]1NC(=O)c1sc2nccc3c2c1NC(=O)N3c1cnc(CC(C)C)cc1C` (single isomer, unassigned) [Compound M], the figures for the IC50 (in [1]; in [5]; with Mouse CD69 cell) were 89 ± 12 nM, 41 ± 12 nM and 99 ± 68 nM, respectively. For the same compound, the “pH 2 solubility” value in [3] (Table 6, pH 2) was found to be 320 μM. Moreover, in data set [3] (Table 6, pH 7), the “pH 7 solubility” value is 7 μM. The Solubility in [3] (aqueous buffer, pH 7, read-out: Solubility pH 7) was 7 µM (≈ 3.63 µg/mL); in [3] (simulated gastric fluid, pH 2, read-out: Solubility pH 2) it was 320 µM (≈ 166 µg/mL). Besides, in data set [5] (compared to Compound A), the “more potent in rat whole blood” value is recorded as 3 fold. For the same compound, the fraction unbound in the data set “PPB % free, cyno” worked out at 0.032; in “PPB % free, human”, 0.031; in the data set “PPB % free, rat” it was 0.037; in the data set “PPB % free, dog” it was 0.063. In data set [7], this compound came in with a half-life of 38 min. The Ki on BTK (setting [8]) came out at 48.5 ± 2.9 nM. Also, on BTK (setting [8]), the inactivation rate constant (kinact) turned out to be 0.000348 s⁻¹. The kinact/KI on BTK (Table 5, read-out: kinact/KI) is 7290 ± 590 M⁻¹ s⁻¹.
